According to patent US20250215029A1 (Recludix Pharma, Inc., priority 2022, published 2025):
Read-outs that look alike come from different tables or passages of the source.

Legend:
[1] = target: T1, Recombinant STAT3 protein (STAT3 (G127-I722)) (Homo sapiens, UniProt P40763); test: STAT3 Fluorescence Polarization (FP) Assay; type: binding; settings: probe 5-FAM-GpYLPQTV-NH2 2 nM, 45-minute incubation
T1 construct: Recombinant STAT3 protein (STAT3 (G127-I722))
Outline: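 Displacement of a fluorescent phosphotyrosine peptide (5-FAM-GpYLPQTV-NH2, 2 nM) from 25 nM recombinant STAT3 G127-I722 was monitored by FP after 45 min at room temperature.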

[2] = target: T2, Recombinant STAT6 protein (STAT6 (W123-T658)) (Homo sapiens, UniProt P42226); test: STAT6 Fluorescence Polarization (FP) Assay; type: binding; settings: 45-minute incubation
T2 construct: Recombinant STAT6 protein (STAT6 (W123-T658))
T2 sequence (P42226 123-658): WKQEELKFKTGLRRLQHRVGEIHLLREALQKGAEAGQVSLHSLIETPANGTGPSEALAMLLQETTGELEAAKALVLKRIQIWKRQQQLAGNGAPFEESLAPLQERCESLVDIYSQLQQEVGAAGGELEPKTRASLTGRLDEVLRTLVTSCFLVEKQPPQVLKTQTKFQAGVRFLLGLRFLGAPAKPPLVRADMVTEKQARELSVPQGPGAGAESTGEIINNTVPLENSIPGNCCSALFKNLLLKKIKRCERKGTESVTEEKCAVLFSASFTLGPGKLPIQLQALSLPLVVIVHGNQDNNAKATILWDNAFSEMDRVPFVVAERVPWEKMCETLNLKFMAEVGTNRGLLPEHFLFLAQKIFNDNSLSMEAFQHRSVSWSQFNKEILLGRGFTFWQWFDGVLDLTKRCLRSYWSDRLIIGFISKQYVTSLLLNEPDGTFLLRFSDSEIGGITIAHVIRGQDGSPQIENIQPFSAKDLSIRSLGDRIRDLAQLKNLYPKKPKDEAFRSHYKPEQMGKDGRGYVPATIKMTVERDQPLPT
Outline: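 Competitive FP binding: recombinant STAT6 (W123-T658) at 250 nM, labeled phosphotyrosine peptide at 2 nM, compounds at 1% DMSO, 45 min at RT before reading. IC50 values were obtained from nonlinear regression of mP versus log concentration.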

[3] = STAT3 25 nM, read-out: STAT3 (FP assay IC50)
[4] = STAT6 250 nM, probe 5-FAM-Ap[…]-NH2 2 nM, read-out: STAT6 (FP assay IC50)
[5] = STAT3 (G127-I722) 25 nM, read-out: STAT3 (FP assay IC50 class)
[6] = STAT6 (W123-T658) 250 nM, probe 5-FAM-Ap[…]-NH2 2 nM, read-out: STAT6 (FP assay IC50 class)

T1 sequence (P40763 127-722): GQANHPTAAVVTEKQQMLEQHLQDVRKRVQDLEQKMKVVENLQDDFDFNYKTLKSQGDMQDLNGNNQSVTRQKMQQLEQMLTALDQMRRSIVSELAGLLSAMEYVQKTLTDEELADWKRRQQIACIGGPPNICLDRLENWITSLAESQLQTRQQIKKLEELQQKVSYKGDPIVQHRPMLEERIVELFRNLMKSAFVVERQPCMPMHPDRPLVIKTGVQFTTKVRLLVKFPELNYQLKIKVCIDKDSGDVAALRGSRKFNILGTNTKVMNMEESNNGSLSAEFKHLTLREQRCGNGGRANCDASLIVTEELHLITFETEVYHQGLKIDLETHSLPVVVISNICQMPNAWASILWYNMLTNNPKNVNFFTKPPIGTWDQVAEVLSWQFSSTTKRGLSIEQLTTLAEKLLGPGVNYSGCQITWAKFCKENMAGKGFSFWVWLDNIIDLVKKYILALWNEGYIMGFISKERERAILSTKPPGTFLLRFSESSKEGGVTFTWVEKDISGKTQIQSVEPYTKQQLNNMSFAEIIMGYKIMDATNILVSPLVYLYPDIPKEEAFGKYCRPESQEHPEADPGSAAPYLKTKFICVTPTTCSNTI

| SMILES | IC50 [1, 3] | IC50 [2, 4] | IC50 [1, 5] | IC50 [2, 6] | IC50 ([2]; STAT6 (W123-T658) 250 nM, probe 5-FAM-ApYKPFQDLI-NH2 2 nM, read-out: STAT6 (FP assay IC50 class)) |
| --- | --- | --- | --- | --- | --- |
| O=C(N[C@H]1CCCC[C@H]2CC[C@@H](C(=O)N3CC(c4cccnc4)C3)N2C1=O)c1cc2cc(C(F)(F)P(=O)(O)O)ccc2s1 [Compound 117, (difluoro(2-(((3S,6S,10aS)-5-oxo-3-(3-(pyridin-3-yl)azetidine-1-carbonyl)decahydropyrrolo [1,2-a]azocin-6-yl)carbamoyl)benzo[b]thiophen-5-yl)methyl) phosphonic acid] | < 0.1 µM | 3 to 30 µM | – | – | – |
| C[C@]1(O)CC[C@H](NC(=O)c2cc3cc(C(F)(F)P(=O)(O)O)ccc3s2)C(=O)N2[C@H](CC[C@H]2C(=O)N2CC(C(=O)N3CCOCC3)C2)C1 [Compound 13, (difluoro(2-(((3S,6S,9S,10aR)-9-hydroxy-9-methyl-3-(3-(morpholine-4-carbonyl)azetidine-1-carbonyl)-5-oxodecahydropyrrolo [1,2-a]azocin-6-yl)carbamoyl)benzo [b]thiophen-5-yl)methyl) phosphonic acid] | < 0.1 µM | 3 to 30 µM | – | – | – |
| Cn1ccc([C@@H]2CN(C(=O)[C@@H]3CC[C@@H]4CCCC[C@H](NC(=O)c5cc6cc(C(F)P(=O)(O)O)ccc6s5)C(=O)N43)C[C@H]2C#N)cc1=O (single isomer, unassigned) [Compound 228] | – | – | 1 to 10 µM | – | 0.3 to 3 µM |
| O=C(N[C@H]1CCC[C@H]2CC[C@@H](C(=O)N3CC(c4cccnc4)C3)N2C1=O)c1cc2nc(CP(=O)(O)O)ccc2s1 [Compound 208, ((2-(((3S,6S,9aS)-5-oxo-3-(3-(pyridin-3-yl)azetidine-1-carbonyl)octahydro-1H-pyrrolo[1,2-a]azepin-6-yl)carbamoyl)thieno[3,2-b]pyridin-5-yl)methyl)phosphonic acid] | – | – | 1 to 10 µM | 3 to 30 µM | – |
| O=C(N[C@H]1CCC[C@H]2CC[C@@H](C(=O)N[C@@H]3CC[C@@H](O)C3)N2C1=O)c1cc2cc(C(F)P(=O)(O)O)ccc2s1 (stereo partly drawn) [Compound 537, (fluoro(2-(((3S,6S,9aS)-3-(((1R,3R)-3-hydroxycyclopentyl)carbamoyl)-5-oxooctahydro-1H-pyrrolo[1,2-a]azepin-6-yl)carbamoyl)benzo[b]thiophen-5-yl)methyl)phosphonic acid] | – | – | 1 to 10 µM | 3 to 30 µM | – |
| O=C(N[C@H]1CCCC[C@H]2CC[C@@H](C(=O)N3CC(c4c[nH]cn4)C3)N2C1=O)c1cc2cc(C(F)(F)P(=O)(O)O)ccc2s1 [Compound 67, ((2-(((3S,6S,10aS)-3-(3-(1H-imidazol-4-yl)azetidine-1-carbonyl)-5-oxodecahydro-pyrrolo[1,2-a]azocin-6-yl)carbamoyl)benzo[b]thiophen-5-yl)difluoromethyl) phosphonic acid] | < 0.1 µM | 0.3 to 3 µM | – | – | – |
| COc1ccncc1C1CN(C(=O)[C@@H]2CC[C@@H]3C[C@@H](C(C)C)CC[C@H](NC(=O)c4cc5cc(C(F)P(=O)(O)O)ccc5s4)C(=O)N32)C1 (stereo partly drawn) [Compound 246, (fluoro(2-(((3S,6S,9S,10aR)-9-isopropyl-3-(3-(4-methoxypyridin-3-yl)azetidine-1-carbonyl)-5-oxodecahydropyrrolo[1,2-a]azocin-6-yl)carbamoyl)benzo[b]thiophen-5-yl)methyl)phosphonic acid] | – | – | < 0.1 µM | 3 to 30 µM | – |

Next, values leading:

| IC50 [1, 3] | IC50 [2, 4] | IC50 [1, 5] | IC50 [2, 6] | IC50 ([2]; STAT6 (W123-T658) 250 nM, probe 5-FAM-ApYKPFQDLI-NH2 2 nM, read-out: STAT6 (FP assay IC50 class)) | SMILES |
| --- | --- | --- | --- | --- | --- |
| – | – | < 0.1 µM | 0.3 to 3 µM | – | COc1ccncc1[C@H]1CCN(C(=O)[C@@H]2CC[C@@H]3CCC[C@H](NC(=O)c4cc5cc(C(F)P(=O)(O)O)ccc5s4)C(=O)N32)C1 (stereo partly drawn) [Compound 707, (fluoro(2-(((3S,6S,9aS)-3-((R)-3-(4-methoxypyridin-3-yl)pyrrolidine-1-carbonyl)-5-oxooctahydro-1H-pyrrolo[1,2-a]azepin-6-yl)carbamoyl)benzo [b]thiophen-5-yl)methyl) phosphonic acid] |
| – | – | 0.1 to 1 µM | 3 to 30 µM | – | O=C(N[C@H]1CCC[C@H]2CC[C@@H](C(=O)N3CC(n4cccn4)C3)N2C1=O)c1cc2cc(C(F)P(=O)(O)O)ccc2s1 (stereo partly drawn) [Compound 613, ((2-(((3S,6S,9aS)-3-(3-(1H-pyrazol-1-yl)azetidine-1-carbonyl)-5-oxooctahydro-1H-pyrrolo[1,2-a]azepin-6-yl)carbamoyl)benzo [b]thiophen-5-yl)fluoromethyl) phosphonic acid] |
| – | – | 0.1 to 1 µM | 3 to 30 µM | – | COCC1(c2ncccn2)CN(C(=O)[C@@H]2CC[C@@H]3CCCC[C@H](NC(=O)c4cc5cc(C(F)(F)P(=O)(O)O)ccc5s4)C(=O)N32)C1 [Compound 654, (difluoro(2-(((3S,6S,10aS)-3-(3-(methoxymethyl)-3-(pyrimidin-2-yl)azetidine-1-carbonyl)-5-oxodecahydropyrrolo [1,2-a]azocin-6-yl)carbamoyl)benzo [b]thiophen-5-yl)methyl) phosphonic acid] |
| – | – | 0.1 to 1 µM | 3 to 30 µM | – | CC(C)OC1(c2nncn2C)CN(C(=O)[C@@H]2CC[C@@H]3CCC[C@H](NC(=O)c4cc5cc(C(F)(F)P(=O)(O)O)ccc5s4)C(=O)N32)C1 [Compound 823, (difluoro(2-(((3S,6S,9aS)-3-(3-isopropoxy-3-(4-methyl-4H-1,2,4-triazol-3-yl)azetidine-1-carbonyl)-5-oxooctahydro-1H-pyrrolo[1,2-a]azepin-6-yl)carbamoyl)benzo [b]thiophen-5-yl)methyl) phosphonic acid] |
| – | – | 1 to 10 µM | 0.3 to 3 µM | – | O=C(NC1CCCCC2CCC(C(=O)N3CC(O)C(n4ccnn4)C3)N2C1=O)c1ccc2ccc(C(F)(F)P(=O)(O)O)cc2c1 (mixture of isomers) [Compound 871, (difluoro(7-(((3S,6S,10aS)-3-((rel-trans)-3-hydroxy-4-(1H-1,2,3-triazol-1-yl)pyrrolidine-1-carbonyl)-5-oxodecahydropyrrolo[1,2-a]azocin-6-yl)carbamoyl)naphthalen-2-yl)methyl) phosphonic acid] |
| – | – | < 0.1 µM | 3 to 30 µM | – | COC[C@@H]1CCN1c1ncncc1C1CN(C(=O)[C@@H]2CC[C@@H]3CCC[C@H](NC(=O)c4cc5cc([C@@H](F)P(=O)(O)O)ccc5s4)C(=O)N32)C1 (single isomer, unassigned) [Compound 669] |
| – | – | 1 to 10 µM | 0.3 to 3 µM | – | CN(Cc1cc[nH]c(=O)c1)C(=O)[C@@H]1CC[C@@H]2CCCC[C@H](NC(=O)c3cc4cc(C(F)(F)P(=O)(O)O)ccc4s3)C(=O)N21 [Compound 800, (difluoro(2-(((3S,6S,10aS)-3-(methyl((2-oxo-1,2-dihydropyridin-4-yl)methyl)carbamoyl)-5-oxodecahydropyrrolo [1,2-a]azocin-6-yl)carbamoyl)benzo [b]thiophen-5-yl)methyl) phosphonic acid] |
| – | – | 1 to 10 µM | 3 to 30 µM | – | O=C(N[C@H]1CCC[C@H]2CC[C@@H](C(=O)N3CC(c4cccnc4)C3)N2C1=O)c1cc2cc(CP(=O)(O)O)ccc2[nH]1 [Compound 720, ((2-(((3S,6S,9aS)-5-oxo-3-(3-(pyridin-3-yl)azetidine-1-carbonyl)octahydro-1H-pyrrolo[1,2-a]azepin-6-yl)carbamoyl)-1H-indol-5-yl)methyl) phosphonic acid] |
| – | – | < 0.1 µM | 3 to 30 µM | – | O=C(N[C@H]1CCC[C@H]2CC[C@@H](C(=O)N3CC(c4cnccc4OC4CCCC4)C3)N2C1=O)c1cc2cc(C(F)P(=O)(O)O)ccc2s1 (stereo partly drawn) [Compound 695, ((2-(((3S,6S,9aS)-3-(3-(4-(cyclopentyloxy)pyridin-3-yl)azetidine-1-carbonyl)-5-oxooctahydro-1H-pyrrolo[1,2-a]azepin-6-yl)carbamoyl)benzo [b]thiophen-5-yl)fluoromethyl) phosphonic acid] |
| – | – | 1 to 10 µM | 3 to 30 µM | – | CN1CCN(C(=O)[C@@H]2CC[C@@H]3CCC[C@H](NC(=O)c4cc5cc(C(F)P(=O)(O)O)ccc5s4)C(=O)N32)c2ccccc21 (stereo partly drawn) [Compound 763, (fluoro(2-(((3S,6S,9aS)-3-(4-methyl-1,2,3,4-tetrahydro-quinoxaline-1-carbonyl)-5-oxooctahydro-1H-pyrrolo[1,2-a]azepin-6-yl)carbamoyl)benzo [b]thiophen-5-yl)methyl) phosphonic acid] |
